# “And” between values parts separate entries of the source, which are not always exact repeats. Identical values can stand only once. Toxic doses and inconclusive results are not listed.
# System: P388 leukemia ip, CD2F1 mice, survival T/C
# Assay: NCI In Vivo Anticancer Drug Screen. Data for tumor model P388 Leukemia (intraperitoneal) in CD2F1 (CDF1) mice
# Settings: endpoint: median survival time, higher = longer survival
# Outline: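 Mice carrying the transplanted tumor received test compound or vehicle. Survival was recorded in each group, and the value is the treated-group measurement divided by that of the vehicle-treated control group.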
smiles,measurement,setting,value
COc1cc(NS(C)(=O)=O)ccc1Nc1c2ccccc2nc2ccccc12,T/C,"dose: 0.25 mg/kg/injection, schedule: Q01DX009 (ip), vehicle: other",119 % of control
same,T/C,"dose: 0.52 mg/kg/injection, schedule: Q01DX009 (ip), vehicle: other",151 % of control
same,T/C,"dose: 0.86 mg/kg/injection, schedule: Q01DX009 (ip), vehicle: other",163 % of control
same,T/C,"dose: 1.0 mg/kg/injection, schedule: Q01DX005 (iv), vehicle: other",120 % of control
same,T/C,"dose: 1.0 mg/kg/injection, schedule: Q01DX009 (ip), vehicle: other",157 % of control
same,T/C,"dose: 1.0 mg/kg/injection, schedule: Q04DX003 (ip), vehicle: other",118 % of control
same,T/C,"dose: 1.44 mg/kg/injection, schedule: Q01DX009 (ip), vehicle: other",173 % of control
same,T/C,"dose: 1.5 mg/kg/injection, schedule: Q04DX003 (ip), vehicle: clinical formulation",152 % of control
same,T/C,"dose: 2.0 mg/kg/injection, schedule: Q01DX005 (ip), vehicle: other",153 % of control and 163 % of control
same,T/C,"dose: 2.0 mg/kg/injection, schedule: Q01DX005 (oral), vehicle: other",111 % of control
same,T/C,"dose: 2.0 mg/kg/injection, schedule: Q01DX009 (ip), vehicle: other",175 % of control and 195 % of control
same,T/C,"dose: 2.0 mg/kg/injection, schedule: Q04DX003 (oral), vehicle: other",111 % of control
same,T/C,"dose: 2.4 mg/kg/injection, schedule: Q01DX009 (ip), vehicle: other",209 % of control
same,T/C,"dose: 2.5 mg/kg/injection, schedule: Q04DX002 (ip), vehicle: clinical formulation",153 % of control and 173 % of control
same,T/C,"dose: 2.5 mg/kg/injection, schedule: Q04DX003 (ip), vehicle: other",155 % of control
same,T/C,"dose: 2.59 mg/kg/injection, schedule: Q04DX003 (ip), vehicle: clinical formulation",167 % of control
same,T/C,"dose: 2.59 mg/kg/injection, schedule: Q04DX003 (ip), vehicle: saline",168 % of control
same,T/C,"dose: 2.59 mg/kg/injection, schedule: Q04DX003 (ip), vehicle: water",161 % of control and 163 % of control and 179 % of control
same,T/C,"dose: 2.6 mg/kg/injection, schedule: Q04DX002 (ip), vehicle: other",160 % of control
same,T/C,"dose: 3.0 mg/kg/injection, schedule: Q04DX003 (ip), vehicle: clinical formulation",160 % of control
same,T/C,"dose: 4.0 mg/kg/injection, schedule: Q01DX005 (ip), vehicle: other",183 % of control and 207 % of control
same,T/C,"dose: 4.0 mg/kg/injection, schedule: Q01DX005 (iv), vehicle: other",154 % of control
same,T/C,"dose: 4.0 mg/kg/injection, schedule: Q01DX005 (oral), vehicle: other",120 % of control
same,T/C,"dose: 4.0 mg/kg/injection, schedule: Q01DX009 (ip), vehicle: other",192 % of control and 223 % of control and 90 % of control
same,T/C,"dose: 4.0 mg/kg/injection, schedule: Q04DX003 (ip), vehicle: other",163 % of control
same,T/C,"dose: 4.0 mg/kg/injection, schedule: Q04DX003 (oral), vehicle: other",119 % of control
same,T/C,"dose: 4.3 mg/kg/injection, schedule: Q04DX002 (ip), vehicle: other",179 % of control
same,T/C,"dose: 4.32 mg/kg/injection, schedule: Q04DX003 (ip), vehicle: clinical formulation",173 % of control
same,T/C,"dose: 4.32 mg/kg/injection, schedule: Q04DX003 (ip), vehicle: saline",175 % of control
same,T/C,"dose: 4.32 mg/kg/injection, schedule: Q04DX003 (ip), vehicle: water",169 % of control and 176 % of control and 180 % of control
same,T/C,"dose: 5.0 mg/kg/injection, schedule: Q04DX002 (ip), vehicle: clinical formulation",172 % of control and 186 % of control
same,T/C,"dose: 5.0 mg/kg/injection, schedule: Q04DX003 (ip), vehicle: other",156 % of control and 161 % of control and 193 % of control
same,T/C,"dose: 6.0 mg/kg/injection, schedule: Q04DX003 (ip), vehicle: clinical formulation",203 % of control
same,T/C,"dose: 6.0 mg/kg/injection, schedule: Q04DX003 (ip), vehicle: saline with Tween-80",175 % of control
same,T/C,"dose: 6.25 mg/kg/injection, schedule: Q04DX002 (oral), vehicle: other",101 % of control and 106 % of control
same,T/C,"dose: 7.2 mg/kg/injection, schedule: Q04DX003 (ip), vehicle: clinical formulation",216 % of control
same,T/C,"dose: 7.2 mg/kg/injection, schedule: Q04DX003 (ip), vehicle: saline",214 % of control
same,T/C,"dose: 7.2 mg/kg/injection, schedule: Q04DX003 (ip), vehicle: water",197 % of control and 204 % of control and 219 % of control
same,T/C,"dose: 8.0 mg/kg/injection, schedule: Q01DX005 (ip), vehicle: other",193 % of control
same,T/C,"dose: 8.0 mg/kg/injection, schedule: Q04DX003 (ip), vehicle: other",158 % of control and 204 % of control
same,T/C,"dose: 8.0 mg/kg/injection, schedule: Q04DX003 (ip), vehicle: saline with Tween-80",182 % of control and 235 % of control
same,T/C,"dose: 8.0 mg/kg/injection, schedule: Q04DX003 (oral), vehicle: other",123 % of control
same,T/C,"dose: 10.0 mg/kg/injection, schedule: Q04DX002 (ip), vehicle: clinical formulation",216 % of control and 238 % of control
same,T/C,"dose: 10.0 mg/kg/injection, schedule: Q04DX003 (ip), vehicle: other",182 % of control and 204 % of control and 245 % of control
same,T/C,"dose: 10.8 mg/kg/injection, schedule: Q01DX001 (ip), vehicle: other",153 % of control
same,T/C,"dose: 12.0 mg/kg/injection, schedule: Q04DX003 (ip), vehicle: clinical formulation",207 % of control and 228 % of control
same,T/C,"dose: 12.0 mg/kg/injection, schedule: Q04DX003 (ip), vehicle: saline",261 % of control
same,T/C,"dose: 12.0 mg/kg/injection, schedule: Q04DX003 (ip), vehicle: water",230 % of control and 231 % of control
same,T/C,"dose: 12.5 mg/kg/injection, schedule: Q04DX002 (oral), vehicle: other",107 % of control and 117 % of control
same,T/C,"dose: 16.0 mg/kg/injection, schedule: Q04DX003 (ip), vehicle: other",193 % of control and 245 % of control
same,T/C,"dose: 18.0 mg/kg/injection, schedule: Q01DX001 (ip), vehicle: other",165 % of control
same,T/C,"dose: 18.0 mg/kg/injection, schedule: Q04DX003 (ip), vehicle: saline with Tween-80",191 % of control and 264 % of control
same,T/C,"dose: 20.0 mg/kg/injection, schedule: Q01DX001 (ip), vehicle: saline with Tween-80",117 % of control
same,T/C,"dose: 20.0 mg/kg/injection, schedule: Q04DX002 (ip), vehicle: clinical formulation",281 % of control
same,T/C,"dose: 22.5 mg/kg/injection, schedule: Q04DX003 (ip), vehicle: saline with Tween-80",198 % of control
same,T/C,"dose: 25.0 mg/kg/injection, schedule: Q04DX002 (oral), vehicle: other",120 % of control
same,T/C,"dose: 25.0 mg/kg/injection, schedule: Q04DX003 (ip), vehicle: saline with Tween-80",161 % of control
same,T/C,"dose: 30.0 mg/kg/injection, schedule: Q01DX001 (ip), vehicle: other",180 % of control
same,T/C,"dose: 30.0 mg/kg/injection, schedule: Q01DX001 (ip), vehicle: saline with Tween-80",120 % of control
same,T/C,"dose: 32.0 mg/kg/injection, schedule: Q04DX003 (oral), vehicle: other",172 % of control
same,T/C,"dose: 40.0 mg/kg/injection, schedule: Q01DX001 (ip), vehicle: saline with Tween-80",228 % of control
same,T/C,"dose: 40.0 mg/kg/injection, schedule: Q04DX003 (ip), vehicle: other",86 % of control
same,T/C,"dose: 45.0 mg/kg/injection, schedule: Q04DX003 (ip), vehicle: saline with Tween-80",187 % of control and 222 % of control and 274 % of control
same,T/C,"dose: 50.0 mg/kg/injection, schedule: Q01DX001 (ip), vehicle: saline with Tween-80",124 % of control
same,T/C,"dose: 50.0 mg/kg/injection, schedule: Q04DX002 (oral), vehicle: other",151 % of control and 168 % of control
same,T/C,"dose: 50.0 mg/kg/injection, schedule: Q04DX003 (oral), vehicle: other",91 % of control
same,T/C,"dose: 60.0 mg/kg/injection, schedule: Q01DX001 (ip), vehicle: saline with Tween-80",252 % of control
Nc1ccc(S(=O)(=O)NCCO)cc1[N+](=O)[O-],T/C,"dose: 100.0 mg/kg/injection, schedule: Q01DX001 (ip), vehicle: saline with Tween-80",95 % of control
same,T/C,"dose: 200.0 mg/kg/injection, schedule: Q01DX001 (ip), vehicle: saline with Tween-80",100 % of control
same,T/C,"dose: 400.0 mg/kg/injection, schedule: Q01DX001 (ip), vehicle: saline with Tween-80",100 % of control
CCOC(=O)c1ccc(N=C/C(Cl)=C(/Cl)C(=O)O)cc1,T/C,"dose: 3.12 mg/kg/injection, schedule: Q01DX009 (ip), vehicle: other",102 % of control
same,T/C,"dose: 6.25 mg/kg/injection, schedule: Q01DX009 (ip), vehicle: other",92 % of control
same,T/C,"dose: 12.5 mg/kg/injection, schedule: Q01DX009 (ip), vehicle: Klucel (hydroxypropylcellulose) (HPC)",92 % of control
same,T/C,"dose: 12.5 mg/kg/injection, schedule: Q01DX009 (ip), vehicle: other",89 % of control

# Source: PubChem BioAssay AID330 (DTP/NCI, 2004)
